{"source": "paper PMC8791477", "about": "“Evaluation of SARS-CoV-2 entry, inflammation and new therapeutics in human lung tissue cells” (PLoS Pathogens, 2022)", "key": {"[1]": {"assay": "in vitro", "details": "African green monkey"}, "[2]": {"system": "COVID-19 patients", "details": "cited from earlier work"}, "[3]": {"system": "SARS-CoV-2", "details": "cited from earlier work"}, "[4]": {"assay": "in vitro", "details": "human, CC50 HLT"}, "[5]": {"system": "IL-6 and CXCL10 expression", "assay": "Immunomodulatory capacity: IL-6 and CXCL10 in LPS + IFN-γ stimulated HLT myeloid cells", "format": "cell-based, human", "details": "20μM, LPS 50 ng/ml + IFN-γ 100 ng/ml, 20h", "experimental": "HLT cells were cultured in a round-bottom 96-well plate containing 20 μM of cepharanthine, ergoloid, ciclesonide, hydroxychloroquine, ivermectin, or camostat mesylate alone or in combination with the stimuli LPS (50 ng/ml) and IFN-γ (100 ng/ml). For each patient, a negative control, cells treated with only medium, and a positive control, cells incubated in the presence of LPS and IFN-γ, were included. Immediately, brefeldin A (BD Biosciences) and monensin (BD Biosciences) were added to cells and cultured overnight at 37°C in 5% CO2. Next day, cellular suspensions were stained with the following antibodies: anti-CD11b (FITC, BioLegend), anti-CD69 (PE-CF594, BD Biosciences), anti-CD14 (APC-H7, BD Biosciences), anti-EpCAM (APC, BioLegend), anti-CD3 (BV650, BD Biosciences), anti-CD45 (BV605, BioLegend), and anti-HLA-DR (BV421, BioLegend). Cells were subsequently fixed and permeabilized using the Cytofix/Cytoperm kit (BD Biosciences) and intracellularly stained with anti-IL-6 (PE-Cy7, BioLegend), and anti-CXCL10 (PE, BioLegend). Cell viability was determined using an AQUA viability dye for flow cytometry (LIVE/DEAD fixable AQUA, Invitrogen). After fixation with PBS 2% PFA, cells were acquired in an LSR Fortessa (BD Biosciences), and data were analyzed using the FlowJo v10.6.1 software (TreeStar)."}, "[6]": {"system": "VeroE6 cells", "details": "up to 100μM"}, "[7]": {"system": "SARS-CoV-2 clinical isolate", "format": "cell-based"}, "[8]": {"system": "HLT cells", "details": "up to 100μM"}, "[9]": {"system": "thrombin", "details": "cited from earlier work"}, "[10]": {"system": "DNA-dependent DNA polymerases of some DNA viruses", "details": "cited from earlier work"}, "[11]": {"details": "10µM, ref Hempel et al., Chemical Science 2021"}}, "note": "Structures can show the parent of a compound that is named as a salt.", "data": [{"molecule": "CN(C)C(=O)COC(=O)Cc1ccc(OC(=O)c2ccc(NC(=N)N)cc2)cc1", "note": "[Camostat, Camostat mesylate]", "values": [{"measurement": "CC50", "setting": "[1]; CC50 Vero E6", "value": "> 100", "unit": "µM"}, {"measurement": "clinical benefit (in words)", "setting": "[2]; COVID-19 patients receiving camostat within the first 48h of admission", "value": "no significant benefit"}, {"measurement": "activity in precision-cut lung slices (in words)", "setting": "[3]; 0.5µM, ref Hoffmann et al, EBiomedicine 2021", "value": "non-active"}, {"measurement": "inhibition, donor 1", "setting": "[3]; [11]", "value": 40, "unit": "%"}, {"measurement": "inhibition, donor 2", "setting": "[3]; [11]", "value": 60, "unit": "%"}, {"measurement": "inhibition in precision-cut lung slices", "setting": "[3]; 10µM, ref Hoffmann et al, EBiomedicine 2021", "value": "approx. 40%"}, {"measurement": "CC50", "setting": "[4]", "value": "> 100", "unit": "µM"}, {"measurement": "expression of CXCL10 in CD11b+CD14- myeloid cells (in words)", "setting": "[5]", "value": "significantly reduced"}, {"measurement": "expression of IL-6 in CD11b+CD14+ myeloid cells (in words)", "setting": "[5]", "value": "significantly reduced"}]}, {"molecule": "CCN(CCO)CCCC(C)Nc1ccnc2cc(Cl)ccc12", "note": "(stereo not drawn) [Hydroxychloroquine]", "values": [{"measurement": "cytotoxicity in VeroE6 (in words)", "setting": "[6]", "value": "no apparent cytotoxicity"}, {"measurement": "viral replication of replication-competent SARS-CoV-2 in HLT cells (in words)", "setting": "[7]", "value": "effective"}, {"measurement": "CC50", "setting": "[1]; CC50 Vero E6, absence of virus", "value": "> 100", "unit": "µM"}, {"measurement": "effectiveness as a treatment for COVID-19 (in words)", "setting": "[2]; clinical trials", "value": "failed to show effectiveness"}, {"measurement": "CC50", "setting": "[4]; absence of virus", "value": "> 100", "unit": "µM"}, {"measurement": "cytotoxicity in HLT (in words)", "setting": "[8]", "value": "no apparent cytotoxicity"}]}, {"molecule": "O=c1c(O)c(-c2cc(O)c(O)c(O)c2)oc2cc(O)cc(O)c12", "note": "[Myricetin]", "values": [{"measurement": "CC50", "setting": "[1]; CC50 Vero E6, absence of virus", "value": "> 100", "unit": "µM"}, {"measurement": "CC50", "setting": "[4]; absence of virus", "value": "> 100", "unit": "µM"}, {"measurement": "IC50", "setting": "[9]", "value": 56, "unit": "µM"}]}, {"molecule": "Nc1ncnc2c1ncn2[C@@H]1O[C@H](CO)[C@@H](O)[C@@H]1O", "note": "[Vidarabine]", "values": [{"measurement": "CC50", "setting": "[1]; CC50 Vero E6, absence of virus", "value": "> 100", "unit": "µM"}, {"measurement": "CC50", "setting": "[4]; absence of virus", "value": "> 100", "unit": "µM"}, {"measurement": "inhibition of viral DNA polymerases relative to those of host cells", "setting": "[10]", "value": "Purine nucleoside analogue ^80. Competitively inhibits DNA-dependent DNA polymerases of some DNA viruses approximately 40 times more than those of host cells ^80."}]}]}
